# According to patent US20040229268A1, “Method and kit for identifying antibiotic-resistant microorganisms” (priority 2003, published 2004):
# What was measured:
# [1] = test system: rRNA/rDNA (pan-bacterial probe); mecA target sequence; assay: HPA after base treatment of specimen or synthetic target (Example 3); type: binding, S. aureus
# Protocol: The effect of base treatment on a S. aureus specimen (#102) was evaluated using the pan-bacterial probe reagent. A pelleted sample of the specimen was suspended in 120 μl of lysis buffer and lysed by treatment for 20 minutes in a heat block set at 110° C. A 50 μl aliquot of the lysed specimen was treated with 50 μl of a 0.4 N LiOH solution at 55° C. for 10 minutes, and then neutralized with the addition of 50 μl of 0.4 N HCl and buffered with 50 μl of a 1× hybridization buffer (0.6 M LiCl, 1% lithium lauryl sulfate, 10 mM EDTA, 10 mM EGTA, 50 mM lithium succinate, pH 5.5). The treated sample was hybridized with the AE-labeled pan-bacterial probe by incubating at 55° C. for 1 hour. An HPA assay to detect specific probe hybrids was carried out using standard procedures that will be familiar to those having an ordinary level of skill in the art. A control sample consisted of 50 μl of the lysed specimen and volumes of hydrolysis, neutralization and buffered solutions equivalent to those of the treated sample.
# For example, the effect of base treatment with 0.8 N LiOH for 10 minutes at 55° C. was assessed using AE-probe 1. For these treatments, an equal volume of 0.8 N LiOH was added to the sample, and the reaction mixtures were neutralized with the addition of an equivalent volume of 0.8 N HCl prior to buffering and assaying by HPA. 300 μl aliquots of each reaction mixture were read in the luminometer. These procedures employed a single-stranded DNA oligonucleotide having the same sequence that was present in the target bacteria, and that was fully complementary to the hybridization probe undergoing testing, as synthetic target.
# [2] = test system: mecA gene; Staphylococcus ribosomal nucleic acids; assay: HPA after thermal lysis, base hydrolysis and neutralization (Examples 5-7); type: binding, S. aureus
# Protocol: The cultured S. aureus specimens were lysed by suspending 1 μl loops of bacteria in 150 μl of lysis buffer and then incubating at 105° C. for 15 minutes. Next, 100 μl of 2 N LiOH base solution was added and RNA was hydrolyzed by incubating the mixtures at 60° C. for 15 minutes. Hydrolyzed samples were neutralized by the addition of 100 μl of a neutralizing reagent that included 2 N HCl and 100 mM succinate buffer (pH 5.5 prior to acidification with HCl). Specifically hybridized probe was detected by standard HPA, essentially as described in Example 1.
# Specimens (1 μl loops of bacteria) were treated and tested essentially as described in Example 5 with the following differences: incubation for lysis was for 15 minutes and incubation for hybridization was for 45 minutes for samples shown in Tables 7-8, while incubation for lysis was for 10 minutes and incubation for hybridization was for 20 minutes for samples shown in Table 9. All of the base-treated solutions were neutralized by the addition of 250 μl of 0.8 N HCl containing 100 mM succinate.
# 2′-methoxy analogs of the AE-labeled DNA probes were prepared by standard phosphoramidite synthesis using 2′ methoxy phosphoramidite analogs. Additional linker positions, which are indicated by parentheses in Table 11, for probe 2 were also prepared for testing. Deoxy probes and 2′-methoxy probe analogs were tested essentially as described in Example 5, except as noted below. Probes synthesized using 2′-methoxy nucleotide analogs are particularly identified by the “MeO” designations. Brief summaries of the procedures used to obtain the results are appended to the tables.
# [3] = Table 7, lysis 15 minutes, hybridization 45 minutes
# [4] = Table 8, lysis 15 minutes, hybridization 45 minutes
# [5] = Table 9, lysis 10 minutes, hybridization 20 minutes
# [6] = Table 10, neutralize 100 μl 2 N HCl containing 200 mM succinate, hybridize 45 minutes at 60° C.
sequence,measurement,setting,value
"GGTATGTGGAAGTTAGATTGGGATCATAGCG (AE label, linker between 13 and 14, chemistry not fully specified; listed as Staphylococcus aureus) [Probe 1]",AE-probe 1 Signal (RLU),"[1]; #148, Control (no base treatment)",34677 RLU
same,AE-probe 1 Signal (RLU),"[1]; #148, base treated (0.8 N LiOH, 10 minutes, 55° C.)",42627 RLU
same,AE-probe 1 Signal (RLU),"[1]; Synthetic target + #148, Control",53367 RLU
same,AE-probe 1 Signal (RLU),"[1]; Synthetic target + #148, base treated",58565 RLU
same,AE-probe 1 Signal (RLU),"[1]; Synthetic target, Control (no base treatment)",22195 RLU
same,AE-probe 1 Signal (RLU),"[1]; Synthetic target, base treated (0.8 N LiOH, 10 minutes, 55° C.)",21283 RLU
same,RLU,"[2]; Table 6, GP18(Neg), MSSA ATCC #12600",821 RLU
same,RLU,"[2]; Table 6, GP1214(Neg), MSSA ATCC #29247",848 RLU
same,RLU,"[2]; Table 6, GP1217(Pos), MRSA ATCC #33591","53,322 RLU"
same,RLU,"[2]; Table 6, GP1218(Pos), MRSA ATCC #43866","36,730 RLU"
same,GP18(Neg) RLU,[2]; [3],757 RLU
same,GP1217(Pos) RLU,[2]; [3],25928 RLU
same,Probe alone Avg RLU,[2]; [3],3668 RLU
same,GP18(Neg) RLU,[2]; [4],879 RLU
same,GP1217(Pos) RLU,[2]; [4],11485 RLU
same,Probe alone Avg RLU,[2]; [4],1123 RLU
same,GP1217(Pos) RLU,[2]; [5],27256 RLU
same,Probe alone Avg RLU,[2]; [5],2476 RLU
same,GP1214(Neg) RLU,[2]; [6],1844 RLU
same,GP1217(Pos) RLU,[2]; [6],37695 RLU
same,Probe alone Avg RLU,[2]; [6],2131 RLU
